The values below come from US20210260078A1, “LOW DOSAGE INTRANASAL AMINOSTEROL DOSAGE FORMS AND METHODS OF USING THE SAME” (Enterin, Inc., priority 2018, published 2021).

“Also recorded” adds a separate entry of the source. Like-named read-outs stand apart in the source and are kept apart here.

Data set [1] in a line: PK profile, IV bolus compared with IN administration (FIG. 9). It counts as in vivo. To be noted: rat, plasma. From the text:
Thus, the amount of aminosterol in the bloodstream is too low to account for the observed pharmacological effect. This means that when administered IN, an aminosterol is having a pharmacological effect via a mechanism other than via plasma concentration of the drug.

The nature of data set [2]: CSF concentration after intranasal (IN) administration. The format is in vivo, Sprague Dawley® (SD) rats. The text has this:
(§1) The purpose of this example was to evaluate the in vivo distribution and function of aminosterols, such as Aminosterol 1436 and squalamine, following intranasal administration. This experiment relates to the amount of drug needed to obtain a therapeutic result, based on an IN route of administration. The results described below detail that aminosterols such as Aminosterol 1436 act at the level of the hypothalamus following in vivo administration, regardless of the route of administration.
(§2) Pharmacokinetic information for these tests can be found in the tables below.

Data set [3] can be described thus: Weight change after IP or IN administration (FIG. 8). It counts as in vivo, mice. As to the method: The purpose of this example was to evaluate and compare the impact on weight following administration of an aminosterol such as Aminosterol 1436 to mice via IP or IN.
Mice were administered: (i) intraperitoneally 1 mg/kg or 10 mg/kg of Aminosterol 1436, (ii) intranasally 0.4 mg/kg of Aminosterol 1436, or (iii) a saline control administered IN. Weight of the mice was then measured for 10 days post-administration.

Data set [4] can be described thus: In vivo brain distribution of radiolabeled Aminosterol 1436 after ICV and IV administration. The arrangement: species or system rat. The note with it: 3H-labeled. From the text:
The purpose of this example was to evaluate the in vivo distribution of Aminosterol 1436 following intracerebroventricular (ICV) and intravenous (IV) administration to rats. ICV injection is an invasive injection technique of substances directly into the cerebrospinal fluid in cerebral ventricles to bypass the blood brain barrier. The results described below detail how aminosterols such as Aminosterol 1436 localize in the brain following in vivo administration, regardless of the route of administration.
Radiolabeled Aminosterol 1436 was injected into rats by two different forms of administration: ICV and IV administration.

Data set [5] in a line: Plasma pharmacokinetics after intranasal (IN) administration. The format is in vivo, Sprague Dawley® (SD) rats.
Source text: as §1, §2

Data set [6] in a line: Food intake and body weight after IP or ICV administration (FIG. 2B, 2C). It counts as in vivo. The note with it: 10 and 40 μg ICV, 5 mg/kg IP, 10 day period. From the text:
The purpose of this example was to evaluate the in vivo distribution of the aminosterol Aminosterol 1436 following intraperitoneal administration (IP) and ICV administration, and to determine the impact the drug has on food intake and body weight when administered IP and ICV.
This experiment is relevant as the areas of the brain where the aminosterol Aminosterol 1436 localized upon administration are known to control feeding behavior and appetite.

Setting [7] is: Sprague-Dawley, rat, inhaled or intranasal, plasma, 0.5 mg/kg IN dose, mean.
Setting [8] is: plasma, 0.5 mg/kg IN dose, mean (Table 4).

In general, bioavailability refers to dose-corrected exposure relative to a reference, in per cent. Read a low bioavailability as little systemic uptake. What is called AUC is the area under the concentration-time curve, a measure of exposure. The term AUC(0-inf) denotes the area under the concentration-time curve extrapolated to infinity. Read a high AUC(0-inf) as more exposure. The term AUC(0-t) denotes exposure summed from dosing to a finite time, without extrapolation to infinity. Higher therefore signals high exposure. As a reminder, the Cmax is the highest concentration seen after dosing. The term half-life denotes how long it takes for the measured level to halve. Lower therefore signals rapid decline. In turn, `CC(C)[C@@H](CC[C@@H](C)[C@H]1CC[C@H]2[C@@H]3[C@H](O)C[C@H]4C[C@@H](NCCCNCCCCNCCCN)CC[C@]4(C)[C@H]3CC[C@]12C)OS(=O)(=O)O` [Aminosterol 1436] returned a bioavailability in data set [1] (other: intranasal, IN 0.5 mg/kg compared with IV bolus 2 mg/kg) of about 20%. Moreover, the AUC in data set [1] (IV bolus 2 mg/kg, read-out: PK profile value after IV bolus injection (AUC)) turned out to be 190 µg·h/mL. In addition, the “Drug found in CSF” value in data set [2] (Sprague-Dawley, rat, in vivo, 0.5 mg/kg) is listed as “No squalamine lactate or Aminosterol 1436 was found in CSF”. In data set [3] (0.4 mg/kg IN, 10 days post-administration), the “Decrease in weight, comparison in words” value is listed as “comparable to 10 mg/kg of intraperitoneally administered Aminosterol 1436”. In addition, the Decrease in weight entry in data set [3] (0.4 mg/kg intranasal (IN)) is given as “about 5%”. For the same molecule, the “Effect on weight (anti-feeding effect)” value in data set [3] (1 mg/kg IP, compared with IN saline control) is listed as “compared similarly to the intranasally administered saline control; also recorded: no anti-feeding effect”. Moreover, the Decrease in weight result in data set [3] (10 mg/kg IP) is “about 19%”. The “Site of localization in brain” value in data set [4] (ICV administration) is on record as “localized to the same regions of the brain”. Besides, the “Site of localization in brain” value in data set [4] (IV administration) is “localized in the hypothalamus”. The “Blood levels after intranasal administration relative to peripherally injected” value in data set [5] (IN versus peripherally injected) came to 10 times. Moreover, in data set [5] (setting [7]), the AUC(0-inf) came to 17.9 µg·h/mL, the AUC(0-t) was 9.37 µg·h/mL, the maximum concentration (Cmax) is 1.68 µg/mL and the half-life is 7.59 h. Moreover, the MRT inf in data set [5] (Sprague-Dawley, rat, inhaled or intranasal, plasma, 0.5 mg/kg IN dose, mean, read-out: MRTInf_obs) worked out at 11.1 h. Moreover, the Tmax in data set [5] (Sprague-Dawley, rat, inhaled or intranasal, plasma, 0.5 mg/kg IN dose, mean, read-out: Tmax) was 4 h. Also, the “Effect on food intake” value in data set [6] was “significant impact on food intake”.
As to `CC(C)[C@@H](CC[C@@H](C)[C@H]1CC[C@H]2[C@@H]3[C@H](O)C[C@H]4C[C@@H](NCCCNCCCCN)CC[C@]4(C)[C@H]3CC[C@]12C)OS(=O)(=O)O.C[C@H](O)C(=O)O.O` [Squalamine Lactate], in data set [2] (CSF, 0.5 mg/kg IN), the “Drug found in CSF” value was “No squalamine lactate or Aminosterol 1436 was found in CSF”. In data set [5] (setting [8]), the AUCInf worked out at 7.863 µg·h/mL, the AUClast is 5.296 µg·h/mL, the MRTInf_obs was determined as 7.12 H and the T1/2 was 4.55 H. For the same molecule, the Tmax in data set [5] (setting [8]) turned out to be 1.00 H.
